± gives the standard deviation of the averaged measurements.
Columns and labels:
Assay in all cases: level (log10 ratio to DMSO vehicle control); higher = higher biomarker level / cell amount than vehicle control
[1] = compound: O=C(O)C(F)(F)C(F)(F)C(F)(F)OC(F)(F)F [Perfluoro(4-methoxybutanoic) acid] (in DMSO)
Procedure: (§1)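 BioMAP Diversity Plus panel of 12 human primary cell co-culture systems (3C, 4H, LPS, SAg, BT, BF4T, BE3C, CASM3C, HDF3CGF, KF3CT, MyoF, Mphg). Compounds were added 1 h before stimulation and left for 24 h (MyoF 48 h; BT 72 h for soluble read-outs or 6 d for IgG). Biomarkers were read by ELISA, cytotoxicity by SRB, PBMC viability and proliferation by Alamar Blue. Each well value was divided by the mean of 8 DMSO control wells on the same plate and log10 transformed; duplicate blinded samples were tested at 4 concentrations.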

[2] = compound: O=C(O)C(F)(OC(F)(F)C(F)(F)C(F)(F)F)C(F)(F)F [Ammonium perfluoro-2-methyl-3-oxahexanoate] (in Water)
Procedure: as §1

[3] = compound: C=C(C)C(=O)OCCC(F)(F)C(F)(F)C(F)(F)C(F)(F)C(F)(F)C(F)(F)C(F)(F)C(F)(F)F [8:2 Fluorotelomer methacrylate] (in DMSO)
Procedure: as §1

[4] = compound: O=S(=O)(O)C(F)(F)C(F)(F)OC(F)(F)C(F)(F)F [Perfluoro(2-ethoxyethane)sulfonic acid] (in DMSO)
Procedure: as §1

[5] = compound: O=C(O)C(F)(OC(F)(F)C(F)(OC(F)(F)C(F)(OC(F)(F)C(F)(F)C(F)(F)F)C(F)(F)F)C(F)(F)F)C(F)(F)F [Perfluoro-(2,5,8-trimethyl-3,6,9-trioxadodecanoic)acid] (in DMSO)
Procedure: as §1

Perfluorononanoic acid = compound: O=C(O)C(F)(F)C(F)(F)C(F)(F)C(F)(F)C(F)(F)C(F)(F)C(F)(F)C(F)(F)F [Perfluorononanoic acid] (in DMSO)
Procedure: as §1

[6] = compound: O=S(=O)(O)C(F)(F)C(F)(F)C(F)(F)C(F)(F)C(F)(F)C(F)(F)C(F)(F)F [Perfluoroheptanesulfonic acid] (in DMSO)
Procedure: as §1

| Test System | level (log10) ([1]; 6700 nM) | level (log10) ([1]; 20000 nM) | level (log10) ([1]; 60000 nM) | level (log10) ([2]; 6700 nM) | level (log10) ([2]; 20000 nM) | level (log10) ([2]; 60000 nM) | level (log10) ([3]; 6700 nM) | level (log10) ([3]; 20000 nM) | level (log10) ([4]; 6700 nM) | level (log10) ([4]; 20000 nM) | level (log10) ([4]; 60000 nM) | level (log10) ([5]; 1100 nM) | level (log10) ([5]; 3300 nM) | level (log10) ([5]; 10000 nM) | level (log10) (Perfluorononanoic acid; 6700 nM) | level (log10) (Perfluorononanoic acid; 20000 nM) | level (log10) ([6]; 1500 nM) | level (log10) ([6]; 4400 nM) | level (log10) ([6]; 13000 nM) | level (log10) ([6]; 40000 nM) |
| --- | --- | --- | --- | --- | --- | --- | --- | --- | --- | --- | --- | --- | --- | --- | --- | --- | --- | --- | --- | --- |
| MyoF:alpha-SM Actin | 0.025 ± 0.028 | -0.0045 ± 0.028 | -0.002 ± 0.0057 | 0.001 ± 0.011 | 0.0005 ± 0.022 | -0.0035 ± 0.0035 | -0.009 ± 0.081 | 0.0025 ± 0.079 | 0.006 ± 0.025 | 0.0075 ± 0.0078 | -0.017 ± 0.0028 | -0.002 ± 0.027 | -0.0105 ± 0.00071 | 0.002 ± 0.062 | -0.0165 ± 0.028 | -0.0645 ± 0.042 | 0.0025 ± 0.1 | 0.0035 ± 0.077 | -0.021 ± 0.064 | 0.0025 ± 0.069 |
| MyoF:bFGF | 0.001 ± 0.0042 | 0.0015 ± 0.012 | 0.015 ± 0.0042 | 0.017 ± 0.0099 | 0.006 ± 0.0014 | 0.0005 ± 0.0092 | -0.0105 ± 0.00071 | 0.011 ± 0.014 | 0.003 ± 0.0014 | 0.0085 ± 0.0064 | 0.0165 ± 0.0092 | -0.014 ± 0.0028 | -0.0045 ± 0.0035 | 0.0075 ± 0.005 | -0.0025 ± 0.025 | 0.015 ± 0.014 | 0.021 ± 0.0071 | 0.0185 ± 0.005 | 0.0105 ± 0.00071 | 0.039 ± 0.02 |
| lMphg:CCL2/MCP-1 | -0.0195 ± 0.026 | -0.0075 ± 0.029 | 0.0265 ± 0.00071 | 0.0165 ± 0.005 | 0.0125 ± 0.012 | 0.038 ± 0.027 | -0.032 | -0.012 ± 0.014 | -0.01 ± 0.03 | 0.005 ± 0.028 | -0.002 ± 0.0042 | 0.0025 ± 0.012 | -0.0095 ± 0.0078 | -0.0125 ± 0.018 | 0.0105 ± 0.0064 | 0.0325 ± 0.03 | -0.009 ± 0.03 | -0.004 ± 0.047 | 0.003 ± 0.0042 | 0.035 ± 0.0028 |
| lMphg:CCL3/MIP-1alpha | -0.0355 ± 0.035 | -0.038 ± 0.024 | -0.015 ± 0.021 | -0.0685 ± 0.035 | -0.067 ± 0.0014 | -0.0185 ± 0.054 | 0.0075 ± 0.039 | 0.028 ± 0.065 | 0.0145 ± 0.025 | 0.0015 ± 0.0064 | 0.0065 ± 0.021 | 0.0465 ± 0.019 | -0.003 ± 0.05 | 0.039 ± 0.041 | 0.004 ± 0.0028 | 0.0175 ± 0.0021 | -0.04 ± 0.0071 | -0.0135 ± 0.047 | -0.0225 ± 0.064 | -0.014 ± 0.037 |
| lMphg:CD40 | -0.014 ± 0.024 | -0.027 ± 0.033 | -0.0375 ± 0.03 | -0.0295 ± 0.0064 | -0.045 ± 0.0099 | -0.049 ± 0.011 | -0.0215 ± 0.029 | -0.05 ± 0.052 | -0.018 ± 0.02 | -0.013 ± 0.037 | -0.0215 ± 0.025 | 0.019 ± 0.057 | 0.026 ± 0.076 | -0.0195 ± 0.036 | 0.002 ± 0.013 | -0.03 ± 0.03 | -0.034 ± 0.021 | -0.007 ± 0.034 | -0.0285 ± 0.043 | -0.0525 ± 0.028 |
| lMphg:CD62E/E-Selectin | -0.0175 ± 0.047 | -0.0265 ± 0.057 | -0.0225 ± 0.054 | 0.013 ± 0.0071 | 0.002 ± 0.0071 | 0.0245 ± 0.013 | 0.0085 ± 0.015 | 0.02 ± 0.014 | 0.0175 ± 0.0092 | 0.0275 ± 0.0092 | 0.0425 ± 0.0092 | 0.002 ± 0.0014 | -0.03 ± 0.0028 | -0.0275 ± 0.026 | 0.0125 ± 0.035 | 0.0365 ± 0.00071 | -0.029 ± 0.028 | -0.0015 ± 0.046 | -0.0135 ± 0.054 | 0.0415 ± 0.043 |
| lMphg:CD69 | -0.0165 ± 0.047 | -0.0145 ± 0.071 | 0.005 ± 0.099 | -0.0435 ± 0.011 | 0 ± 0.013 | -0.0185 ± 0.015 | -0.041 ± 0.037 | -0.041 | -0.043 ± 0.075 | 0.011 ± 0.0099 | -0.0415 ± 0.0078 | -0.02 ± 0.0099 | -0.017 ± 0.0042 | -0.008 ± 0.0014 | -0.0165 ± 0.069 | 0.0125 ± 0.032 | -0.014 ± 0.055 | -0.008 ± 0.027 | -0.0145 ± 0.00071 | -0.0155 ± 0.018 |
| lMphg:CD106/VCAM-1 | 0.0015 ± 0.0035 | -0.0015 ± 0.022 | -0.0085 ± 0.021 | -0.0195 ± 0.0035 | -0.013 ± 0.0028 | -0.0085 ± 0.0035 | -0.0245 ± 0.0035 | -0.0315 ± 0.016 | -0.0225 ± 0.0064 | -0.016 ± 0.017 | -0.023 ± 0.0014 | 0.001 ± 0.0014 | 0.003 ± 0.021 | 0.0015 ± 0.044 | 0.001 ± 0.04 | -0.005 ± 0.02 | -0.0135 ± 0.0035 | -0.0285 ± 0.021 | -0.0115 ± 0.016 | -0.019 ± 0.0014 |
| lMphg:CXCL8/IL-8 | 0.001 ± 0.04 | 0.005 ± 0.011 | 0.083 ± 0.037 | 0.137 ± 0.0021 | 0.194 ± 0.0078 | 0.261 ± 0.025 | 0.0355 ± 0.023 | 0.085 ± 0.016 | 0.0055 ± 0.005 | 0.034 ± 0.018 | 0.118 ± 0.016 | 0.0035 ± 0.04 | 0.005 ± 0.02 | 0.0375 ± 0.033 | 0.093 ± 0.03 | 0.186 ± 0.06 | -0.001 ± 0.038 | -0.0165 ± 0.0078 | -0.018 ± 0.023 | 0.074 ± 0.069 |
| lMphg:IL-1alpha | -0.051 ± 0.018 | -0.0345 ± 0.029 | 0.027 ± 0.068 | 0.0825 ± 0.059 | 0.079 ± 0.055 | 0.11 ± 0.021 | -0.007 ± 0.028 | 0.0165 ± 0.073 | 0.006 ± 0.011 | 0.012 ± 0.0071 | 0.0335 ± 0.026 | -0.0225 ± 0.021 | -0.026 ± 0.016 | 0.0045 ± 0.0078 | -0.017 ± 0.017 | 0.0495 ± 0.0035 | 0.0075 ± 0.036 | -0.0045 ± 0.028 | 0 ± 0.042 | 0.073 ± 0.044 |
| lMphg:M-CSF | -0.0095 ± 0.0078 | -0.019 ± 0.011 | -0.0115 ± 0.0064 | -0.084 ± 0.021 | -0.0725 ± 0.00071 | -0.0815 ± 0.011 | -0.013 ± 0.018 | -0.0365 ± 0.022 | 0.0025 ± 0.0092 | -0.011 ± 0.0028 | -0.011 ± 0.0071 | -0.0095 ± 0.00071 | -0.0065 ± 0.022 | 0.0145 ± 0.021 | -0.0215 ± 0.0064 | -0.006 ± 0.031 | -0.0065 ± 0.023 | -0.01 ± 0.037 | -0.0285 ± 0.039 | -0.0285 ± 0.0035 |
| lMphg:SRB | -0.008 ± 0.0099 | -0.0135 ± 0.0035 | -0.0055 ± 0.016 | -0.043 ± 0.0014 | -0.0435 ± 0.00071 | -0.0395 ± 0.0035 | -0.0035 ± 0.0035 | -0.0055 ± 0.0064 | -0.001 ± 0.0014 | 0 ± 0.013 | -0.021 ± 0.0071 | -0.005 | -0.0115 ± 0.0092 | -0.005 ± 0.0042 | 0.008 ± 0.0042 | 0.0105 ± 0.021 | -0.01 ± 0.013 | -0.0055 ± 0.011 | 0.0015 ± 0.0035 | 0.003 ± 0.0057 |
| lMphg:SRB-Mphg | -0.013 ± 0.02 | 0.0125 ± 0.012 | 0.0115 ± 0.0021 | -0.0535 ± 0.036 | -0.046 ± 0.041 | -0.054 ± 0.041 | 0.0085 ± 0.011 | -0.009 ± 0.031 | 0.0125 ± 0.005 | 0.0155 ± 0.015 | -0.0045 ± 0.025 | -0.0035 ± 0.00071 | -0.0135 ± 0.0092 | 0.014 ± 0.014 | -0.0205 ± 0.035 | -0.062 ± 0.081 | -0.0005 ± 0.016 | -0.0025 ± 0.036 | 0.002 ± 0.0099 | -0.0005 ± 0.036 |
| lMphg:sIL-10 | 0 ± 0.03 | -0.017 ± 0.0014 | -0.0345 ± 0.023 | -0.36 ± 0.035 | -0.328 ± 0.018 | -0.467 ± 0.13 | -0.107 ± 0.049 | -0.116 ± 0.0021 | 0.0105 ± 0.13 | -0.0625 ± 0.005 | -0.818 ± 0.028 | -0.0195 ± 0.0021 | -0.0265 ± 0.084 | -0.05 ± 0.072 | -0.0035 ± 0.026 | -0.093 ± 0.044 | -0.042 ± 0.018 | -0.109 ± 0.048 | -0.101 ± 0.023 | -0.239 ± 0.072 |

Source: the supplement of paper PMC10331698
